Values belong to the compound of their own block, whether it stands above or below them. Bridge positions count the residues as written; N and C are the ends. Square brackets hold non-standard residues; d marks the D form. Peptide text beside a SMILES is read from it. hArg = N=C(N)NCCCC[C@H](N)C(=O)O; Mpa = O=C(O)CCS
Experiments:
[1] = molecular target: T1, Integrin alpha-L/beta-2 (LFA-1) (Homo sapiens, UniProt P05107+P20701); assay: Binding affinity to human lymphocyte integrin alphaL beta2 (Cys125 to Gly311residues) expressed in Escherichia coli XL-1B cells by isothermal titration calorimetry
T1 sequence (P20701 whole entry): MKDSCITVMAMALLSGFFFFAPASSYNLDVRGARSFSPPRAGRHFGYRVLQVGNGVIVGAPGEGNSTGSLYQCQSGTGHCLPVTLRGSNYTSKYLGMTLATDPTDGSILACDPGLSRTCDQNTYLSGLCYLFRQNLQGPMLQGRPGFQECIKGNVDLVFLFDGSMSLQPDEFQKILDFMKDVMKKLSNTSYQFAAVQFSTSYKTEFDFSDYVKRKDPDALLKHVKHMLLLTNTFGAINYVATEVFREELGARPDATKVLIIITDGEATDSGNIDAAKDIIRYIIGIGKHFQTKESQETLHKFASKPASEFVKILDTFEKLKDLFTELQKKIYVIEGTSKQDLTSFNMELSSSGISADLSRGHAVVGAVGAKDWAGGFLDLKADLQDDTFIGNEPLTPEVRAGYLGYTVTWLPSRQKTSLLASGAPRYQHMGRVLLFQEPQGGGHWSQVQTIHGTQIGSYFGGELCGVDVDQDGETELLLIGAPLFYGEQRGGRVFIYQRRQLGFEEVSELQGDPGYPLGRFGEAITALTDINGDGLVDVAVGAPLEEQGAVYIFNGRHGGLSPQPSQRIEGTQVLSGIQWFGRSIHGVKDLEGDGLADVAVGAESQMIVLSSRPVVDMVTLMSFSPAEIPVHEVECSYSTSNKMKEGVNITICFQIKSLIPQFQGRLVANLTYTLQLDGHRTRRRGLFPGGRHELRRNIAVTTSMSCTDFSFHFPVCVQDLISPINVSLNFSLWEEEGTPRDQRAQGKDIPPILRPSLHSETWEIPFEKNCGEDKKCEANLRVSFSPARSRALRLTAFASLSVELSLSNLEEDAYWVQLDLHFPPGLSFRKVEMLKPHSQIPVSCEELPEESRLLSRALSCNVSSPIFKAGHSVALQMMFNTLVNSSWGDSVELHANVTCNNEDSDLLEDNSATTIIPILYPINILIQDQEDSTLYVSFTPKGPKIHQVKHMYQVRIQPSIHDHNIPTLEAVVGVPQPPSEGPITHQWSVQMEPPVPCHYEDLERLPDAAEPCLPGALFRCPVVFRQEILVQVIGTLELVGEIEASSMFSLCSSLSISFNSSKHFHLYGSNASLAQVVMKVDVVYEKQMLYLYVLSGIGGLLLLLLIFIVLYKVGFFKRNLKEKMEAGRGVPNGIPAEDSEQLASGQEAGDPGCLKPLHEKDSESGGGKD
T1 sequence (P05107 whole entry): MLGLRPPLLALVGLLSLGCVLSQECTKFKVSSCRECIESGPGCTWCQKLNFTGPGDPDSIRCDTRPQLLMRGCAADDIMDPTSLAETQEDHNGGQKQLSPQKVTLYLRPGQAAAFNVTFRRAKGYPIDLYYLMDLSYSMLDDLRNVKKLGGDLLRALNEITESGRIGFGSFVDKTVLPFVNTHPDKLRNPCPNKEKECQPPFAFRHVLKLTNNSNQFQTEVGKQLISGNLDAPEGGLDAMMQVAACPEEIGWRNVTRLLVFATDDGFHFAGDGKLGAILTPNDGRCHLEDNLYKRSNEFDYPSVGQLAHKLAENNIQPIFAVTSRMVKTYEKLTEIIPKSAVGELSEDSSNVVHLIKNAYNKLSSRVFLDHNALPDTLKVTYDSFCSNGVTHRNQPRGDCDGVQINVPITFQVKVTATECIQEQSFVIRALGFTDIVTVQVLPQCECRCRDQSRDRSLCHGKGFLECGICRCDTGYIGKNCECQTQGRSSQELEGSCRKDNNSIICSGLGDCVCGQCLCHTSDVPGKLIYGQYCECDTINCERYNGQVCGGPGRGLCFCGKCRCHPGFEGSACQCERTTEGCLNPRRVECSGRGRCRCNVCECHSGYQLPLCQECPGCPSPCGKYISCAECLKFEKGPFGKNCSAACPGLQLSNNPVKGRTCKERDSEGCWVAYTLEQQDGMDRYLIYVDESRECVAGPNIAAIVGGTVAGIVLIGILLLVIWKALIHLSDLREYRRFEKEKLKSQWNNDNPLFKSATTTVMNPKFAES

Integrin alpha-V/beta-3 [2] = molecular target: T2, Integrin alpha-V/beta-3 (Homo sapiens, UniProt P05106+P06756); assay: Inhibition of human integrin alphavbeta3 expressed in HEK293 cells assessed as reduction in cell adhesion to fibrinogen preincubated for 20 mins followed by phosphatase substrate addition and measured after 1 hr by spectrophotometry; format: cell-based
T2 sequence (P05106 27-788 limits assumed): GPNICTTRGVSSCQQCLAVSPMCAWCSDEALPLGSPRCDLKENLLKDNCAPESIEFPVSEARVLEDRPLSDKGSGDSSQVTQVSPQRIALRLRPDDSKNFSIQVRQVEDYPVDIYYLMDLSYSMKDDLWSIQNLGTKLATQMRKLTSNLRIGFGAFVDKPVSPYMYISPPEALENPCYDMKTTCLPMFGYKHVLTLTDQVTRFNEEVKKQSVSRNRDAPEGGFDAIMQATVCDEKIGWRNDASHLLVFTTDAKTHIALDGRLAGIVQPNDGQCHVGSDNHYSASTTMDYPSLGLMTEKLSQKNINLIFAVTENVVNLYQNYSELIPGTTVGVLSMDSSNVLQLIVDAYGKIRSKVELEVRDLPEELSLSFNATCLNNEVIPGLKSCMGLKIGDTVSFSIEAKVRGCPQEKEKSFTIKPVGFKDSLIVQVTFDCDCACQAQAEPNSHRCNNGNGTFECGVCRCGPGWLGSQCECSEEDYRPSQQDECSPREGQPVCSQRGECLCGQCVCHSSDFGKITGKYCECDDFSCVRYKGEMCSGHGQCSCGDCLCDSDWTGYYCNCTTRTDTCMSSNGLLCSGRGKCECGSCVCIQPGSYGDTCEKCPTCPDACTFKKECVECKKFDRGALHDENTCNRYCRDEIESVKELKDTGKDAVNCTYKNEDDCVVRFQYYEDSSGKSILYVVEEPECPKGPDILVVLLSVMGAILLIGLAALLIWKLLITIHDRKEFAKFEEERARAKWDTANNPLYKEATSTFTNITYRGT
T2 sequence (P06756 31-889 limits assumed): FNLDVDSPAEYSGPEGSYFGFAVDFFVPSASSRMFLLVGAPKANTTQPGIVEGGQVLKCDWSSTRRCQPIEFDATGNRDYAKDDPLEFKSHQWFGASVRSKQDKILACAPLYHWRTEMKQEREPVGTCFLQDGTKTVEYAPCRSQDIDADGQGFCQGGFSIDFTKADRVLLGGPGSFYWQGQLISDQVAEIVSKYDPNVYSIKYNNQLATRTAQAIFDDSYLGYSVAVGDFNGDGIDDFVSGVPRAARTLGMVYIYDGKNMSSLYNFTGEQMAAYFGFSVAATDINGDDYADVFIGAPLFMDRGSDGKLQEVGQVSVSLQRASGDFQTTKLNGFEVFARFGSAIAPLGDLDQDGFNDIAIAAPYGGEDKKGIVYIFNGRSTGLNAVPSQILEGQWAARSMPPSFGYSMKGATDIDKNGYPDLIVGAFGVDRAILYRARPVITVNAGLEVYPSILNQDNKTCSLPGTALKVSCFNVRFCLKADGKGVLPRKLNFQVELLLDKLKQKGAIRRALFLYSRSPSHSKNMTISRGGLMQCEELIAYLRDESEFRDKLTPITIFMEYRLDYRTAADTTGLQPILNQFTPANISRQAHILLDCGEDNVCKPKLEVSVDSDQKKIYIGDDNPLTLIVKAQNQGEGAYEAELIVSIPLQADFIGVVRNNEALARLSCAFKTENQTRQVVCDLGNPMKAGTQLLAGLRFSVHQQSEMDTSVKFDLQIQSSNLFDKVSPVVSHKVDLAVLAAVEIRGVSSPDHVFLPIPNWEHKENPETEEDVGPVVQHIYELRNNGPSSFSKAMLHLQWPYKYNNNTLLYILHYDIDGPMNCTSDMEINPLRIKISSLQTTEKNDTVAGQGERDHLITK
T2 sequence (P06756 891-1048 limits assumed): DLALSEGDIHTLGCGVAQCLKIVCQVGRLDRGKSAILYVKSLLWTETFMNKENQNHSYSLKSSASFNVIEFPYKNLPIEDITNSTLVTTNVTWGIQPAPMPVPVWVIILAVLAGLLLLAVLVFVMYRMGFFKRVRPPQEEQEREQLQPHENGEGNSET

Integrin alpha-4/beta-1 = Integrin alpha-4/beta-1 (Homo sapiens, UniProt P05556+P13612); assay: Binding affinity to human integrin alpha4beta1 incubated for 6 hrs by radioligand binding assay; format: protein-complex assay
Integrin alpha2/beta1 = Integrin alpha2/beta1 (Homo sapiens, UniProt P05556+P17301); assay: Inhibition of human alpha2 beta1 expressed in CHO cells assessed as reduction in cell adhesion to collagen type 1 incubated for 5 mins by DiOC6 dye based fluorescence microscopy
[3] = molecular target: T1, Integrin alpha-L/beta-2 (LFA-1); assay: Inhibition of human integrin alphaL beta2 assessed as reduction in integrin alphaL beta2/ICAM1 protein-protein interaction by ELISA; format: protein-complex assay
[4] = molecular target: Integrin alpha-IIb/beta-3 (Homo sapiens, UniProt P05106+P08514); assay: Inhibition of FITC-dodecapeptide binding to human integrin alpha2b beta3 receptor stably expressed in CHO Lec.3.2.8.1 cells by fluorescence anisotropy; format: cell-based
Integrin alpha-V/beta-1 = Integrin alpha-V/beta-1 (Homo sapiens, UniProt P05556+P06756); assay: Displacement of [3H] C8 from human integrin alphavbeta1 incubated for 6 hrs by competition binding assay; format: protein-complex assay
Integrin alpha-V/beta-1, sequence (P05556 21-798 limits assumed): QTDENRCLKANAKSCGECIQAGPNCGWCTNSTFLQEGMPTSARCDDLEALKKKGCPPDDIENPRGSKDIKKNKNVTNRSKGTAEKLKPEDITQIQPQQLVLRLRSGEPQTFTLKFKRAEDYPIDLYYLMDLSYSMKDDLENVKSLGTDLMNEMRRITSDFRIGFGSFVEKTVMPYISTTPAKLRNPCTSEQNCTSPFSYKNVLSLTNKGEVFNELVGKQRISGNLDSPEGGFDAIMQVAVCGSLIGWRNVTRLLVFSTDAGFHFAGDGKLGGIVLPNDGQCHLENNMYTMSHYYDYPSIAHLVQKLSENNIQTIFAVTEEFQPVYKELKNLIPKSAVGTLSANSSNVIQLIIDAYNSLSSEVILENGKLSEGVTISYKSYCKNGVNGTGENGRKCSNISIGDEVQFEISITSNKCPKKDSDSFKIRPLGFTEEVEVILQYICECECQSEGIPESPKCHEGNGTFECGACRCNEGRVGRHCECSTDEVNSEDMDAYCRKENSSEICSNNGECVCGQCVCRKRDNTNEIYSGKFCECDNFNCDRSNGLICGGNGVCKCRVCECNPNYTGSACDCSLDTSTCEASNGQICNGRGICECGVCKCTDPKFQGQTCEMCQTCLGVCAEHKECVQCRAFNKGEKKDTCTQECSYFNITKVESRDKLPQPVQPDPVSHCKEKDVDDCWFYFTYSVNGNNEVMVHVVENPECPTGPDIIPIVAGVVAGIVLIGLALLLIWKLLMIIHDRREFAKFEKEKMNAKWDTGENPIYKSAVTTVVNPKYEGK
Integrin alpha-V/beta-1, sequence (P06756 31-889 limits assumed): as the sequence (P06756 31-889 limits assumed) above
Integrin alpha-V/beta-1, sequence (P06756 891-1048 limits assumed): as the sequence (P06756 891-1048 limits assumed) above

Integrin alpha-V/beta-3 [5] = molecular target: T2, Integrin alpha-V/beta-3; assay: Inhibition of human integrin alphavbeta3 (unknown origin); format: protein-complex assay

Kd [1]: 18.3 nM
Structure (SMILES): CCOc1ccccc1Sc1ccc(-c2ccnc(N3CCN(C(C)=O)CC3)c2)cc1[N+](=O)[O-]

IC50 (Integrin alpha-V/beta-3 [2]): 3 nM
Structure (SMILES): COc1ccc([C@H](CC(=O)O)N2CCN(CCCc3ccc4c(n3)NCCC4)C2=O)cn1

Kd (Integrin alpha-4/beta-1): 0.794 nM
Structure (SMILES): N=C(N)NCCCCC(=O)Nc1ccc(C[C@H](NC(=O)[C@@H]2CCCN2S(=O)(=O)c2ccccc2)C(=O)O)cc1

EC50 (Integrin alpha2/beta1): 130 nM
Structure (SMILES): CN(c1ccc(NC(=O)Nc2ccccc2)cc1)S(=O)(=O)c1cnn(-c2ccc(F)cc2)c1

IC50 [3]: 50 nM
Structure (SMILES): CC[C@H](C)C(=O)OC1C[C@@H](C)C=C2C=C[C@H](C)[C@H](CC[C@@H]3C[C@H](CC(=O)NC)N(Cc4ccc(O)c(OC)c4)C(=O)O3)[C@H]21 (some centres not stated)

IC50 [4]: 0.6 nM
Structure (SMILES): N=C(N)c1ccc(C(=O)NCCC(=O)N[C@@H](CC(=O)O)C(=O)NC(Cc2ccccc2)C(=O)O)cc1 (some centres not stated)

IC50 (Integrin alpha-V/beta-3 [2]): 25 nM
Structure (SMILES): O=C(CCCCc1ccc2c(n1)NCCC2)NCC[C@H](NC(=O)c1nc2ccccc2s1)C(=O)O

IC50 [3]: 200 nM
Structure (SMILES): CC[C@H](C)C(=O)O[C@H]1C[C@@H](C)C=C2C=C[C@H](C)[C@H](CCC3C[C@@H](O)CC(=O)N3Cc3ccc4c(CO)c(OC)ccc4c3)[C@H]21 (some centres not stated)

EC50 (Integrin alpha2/beta1): 160 nM
Structure (SMILES): CN(c1ccc(NC(=O)Nc2ccccc2)cc1)S(=O)(=O)c1ccc(-c2ccnn2C)s1

Ki (Integrin alpha-V/beta-1): 0.166 nM
Structure (SMILES): CCNC(=O)Nc1cnnc(-c2ccc(C[C@H](NC(=O)c3c(Cl)cccc3Cl)C(=O)O)cc2)c1

IC50 (Integrin alpha-V/beta-3 [5]): 8 to 19 nM
Structure (SMILES): O=C(NC[C@H](NS(=O)(=O)c1cccnc1)C(=O)O)c1cc2cc(CCC3CCNCC3)sc2s1

Kd (Integrin alpha-V/beta-3 [5]): 120 nM
Structure (SMILES): N=C(N)NCCCC[C@@H]1NC(=O)CCSSC[C@@H](C(N)=O)NC(=O)[C@@H]2CCCN2C(=O)[C@H](Cc2c[nH]c3ccccc23)NC(=O)[C@H](CC(=O)O)NC(=O)CNC1=O [EPTIFIBATIDE] ([Mpa][hArg]GDWPC-NH2; disulfide 1-7)

Source: ChEMBL document CHEMBL4602673, “Insights into Protein-Ligand Interactions in Integrin Complexes: Advances in Structure Determinations” (J Med Chem, 2020)
